Assay results: ChEMBL document CHEMBL1268996, “Apoptotic action of ursolic acid isolated from Corni fructus in RC-58T/h/SA#4 primary human prostate cancer cells” (2010)
Activity calls are given as the source filed them. No cut-off for these calls is given here.

What was measured:
[1] = Induction of apoptosis in human RC-58T/h/SA#4 cells assessed as increase in sub-G1 DNA content at 10 ug/ml after 24 hrs by flow cytometry; assay type: functional
Homo sapiens [2] = species: Homo sapiens; assay: Induction of apoptosis in human RC-58T/h/SA#4 cells assessed as PARP cleavage by Western blot analysis; assay type: functional, cell-based
[3] = Induction of apoptosis in human RC-58T/h/SA#4 cells assessed as increase in sub-G1 DNA content at 20 ug/ml after 24 hrs by flow cytometry; assay type: functional
Homo sapiens [4] = species: Homo sapiens; assay: Induction of apoptosis in human RC-58T/h/SA#4 cells assessed as caspase 8-mediated Bid protein cleavage at 30 to 40 uM by Western blot analysis; assay type: functional, cell-based
Homo sapiens [5] = species: Homo sapiens; assay: Antiproliferative activity against human RC-58T/h/SA#4 cells assessed as decrease in viable cells by trypan blue assay; assay type: functional, cell-based
Homo sapiens [6] = species: Homo sapiens; assay: Induction of apoptosis in human RC-58T/h/SA#4 cells assessed as nuclear fragmentation at 30 to 40 uM after 24 hrs by Hoechst 33258 staining; assay type: functional, cell-based
Homo sapiens [7] = species: Homo sapiens; assay: Induction of apoptosis in human RC-58T/h/SA#4 cells assessed as increase in pro-apoptotic protein Bax at 30 to 40 uM by Western blot analysis; assay type: functional, cell-based
Homo sapiens [8] = species: Homo sapiens; assay: Induction of apoptosis in human RC-58T/h/SA#4 cells assessed as decrease in anti-apoptotic protein Bcl-2 at 30 to 40 uM by Western blot analysis; assay type: functional, cell-based
Homo sapiens [9] = species: Homo sapiens; assay: Induction of apoptosis in human RC-58T/h/SA#4 cells assessed as chromatin condensation at 30 to 40 uM after 24 hrs by Hoechst 33258 staining; assay type: functional, cell-based
[10] = Induction of apoptosis in human RC-58T/h/SA#4 cells assessed as increase in sub-G1 DNA content at 40 ug/ml after 24 hrs by flow cytometry; assay type: functional
Homo sapiens [11] = species: Homo sapiens; assay: Induction of apoptosis in human RC-58T/h/SA#4 cells assessed as PARP cleavage by Western blot analysis in presence of 10 uM Z-VAD-fmk caspase inhibitor; assay type: functional, cell-based
Homo sapiens [12] = species: Homo sapiens; assay: Induction of apoptosis in human RC-58T/h/SA#4 cells assessed as AIF translocation into nucleus at 30 to 40 uM by Western blot analysis; assay type: functional, cell-based
[13] = Induction of apoptosis in human RC-58T/h/SA#4 cells assessed as increase in sub-G1 DNA content at 30 ug/ml after 24 hrs by flow cytometry; assay type: functional
Homo sapiens [14] = species: Homo sapiens; assay: Antiproliferative activity against human RC-58T/h/SA#4 cells after 24 to 72 hrs SRB assay; assay type: functional, cell-based
[15] = Induction of apoptosis in human RC-58T/h/SA#4 cells assessed as caspase 8 activation at 40 uM by fluorometric protease assay relative to control; assay type: functional
Homo sapiens [16] = species: Homo sapiens; assay: Induction of apoptosis in human RC-58T/h/SA#4 cells assessed as increase in sub-G1 DNA content after 24 hrs by flow cytometry; assay type: functional, cell-based
[17] = Induction of apoptosis in human RC-58T/h/SA#4 cells assessed as caspase 3 activation at 40 uM by fluorometric protease assay relative to control; assay type: functional
[18] = Induction of apoptosis in human RC-58T/h/SA#4 cells assessed as caspase 9 activation at 40 uM by fluorometric protease assay relative to control; assay type: functional
Homo sapiens [19] = species: Homo sapiens; assay: Induction of apoptosis in human RC-58T/h/SA#4 cells assessed as DNA fragmentation ladder at 30 to 40 uM after 24 hrs by agarose gel electrophoresis; assay type: functional, cell-based
Homo sapiens [20] = species: Homo sapiens; assay: Antiproliferative activity against human RC-58T/h/SA#4 cells at >= 30 uM SRB assay; assay type: functional, cell-based; settings: TDE = time-dependent effect

C[C@H]1[C@H](C)CC[C@]2(C(=O)O)CC[C@]3(C)C(=CC[C@@H]4[C@@]5(C)CC[C@H](O)C(C)(C)[C@@H]5CC[C@]43C)[C@H]12 [URSOLIC ACID]
Activity [1]: 5.41%
Activity (Homo sapiens [2]): Active
Activity [3]: 20.83%
Activity (Homo sapiens [4]): Active
Activity (Homo sapiens [5]): Dose-dependent effect
Activity (Homo sapiens [6]): Active
Activity (Homo sapiens [7]): Active
Activity (Homo sapiens [8]): Active
Activity (Homo sapiens [9]): Active
Activity [10]: 58.6%
Activity (Homo sapiens [11]): inactive
Activity (Homo sapiens [12]): Active
Activity [13]: 48.1%
Activity (Homo sapiens [14]): Dose-dependent effect
fold change (FC) [15]: 1.8
Activity (Homo sapiens [16]): Dose-dependent effect
fold change (FC) [17]: 1.8
fold change (FC) [18]: 1.1
Activity (Homo sapiens [19]): Active
Activity (Homo sapiens [20]): tde
